Calls of active or inactive are those of the source. The rule behind the calls is not given here.
Molecular target: Mu-type opioid receptor (Homo sapiens) (UniProt P35372)
Test: OPRM1 activation in cells, late-stage follow-up, counter-screen for OPRM1-OPRD1 heterodimer activator project, cell-based, luminescence, dose response, set 2 (AID 651769)
Conditions: OPRM1 cell-based luminescence activation counterscreen

Mu-type opioid receptor (Homo sapiens), sequence (P35372 whole entry, looked up): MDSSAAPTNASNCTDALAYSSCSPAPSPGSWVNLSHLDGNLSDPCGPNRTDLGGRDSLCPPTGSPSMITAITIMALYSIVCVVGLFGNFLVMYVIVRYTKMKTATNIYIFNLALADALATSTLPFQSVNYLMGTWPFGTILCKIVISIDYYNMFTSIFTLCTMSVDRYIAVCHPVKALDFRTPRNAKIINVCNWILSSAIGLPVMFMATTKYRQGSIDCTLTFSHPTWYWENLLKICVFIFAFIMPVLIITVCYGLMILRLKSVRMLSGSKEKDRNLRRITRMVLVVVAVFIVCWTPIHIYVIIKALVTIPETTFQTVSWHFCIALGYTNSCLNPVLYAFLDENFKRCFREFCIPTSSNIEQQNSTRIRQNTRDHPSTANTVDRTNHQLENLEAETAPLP

SMILES | EC50
CCOC(=O)C1(CCc2ccccc2)CCN(C(=O)Nc2ccc(C)cc2C)CC1 | > 50 µM (inactive)
C=Cc1ccc(C(=O)N2CCC(CCc3ccccc3)(C(=O)OCC)CC2)cc1 | > 50 µM (inactive)
O=C(O)C1CCCCC1C(=O)Nc1ccc(CN2CCCCC2)cc1 (stereo not drawn) | > 50 µM (inactive)
CCOC(=O)C1CCN(Cc2ccc(NC(C)=O)cc2)CC1 | > 50 µM (inactive)
CCOC(=O)C1(CCc2ccccc2)CCN(Cc2c(O)cccc2OC)CC1 | 3.44 µM
CCOC(=O)C1CCN(CCC(=O)Nc2ccc(C)cc2)CC1 | > 50 µM (inactive)
C=Cc1ccc(C(=O)N2CCC(CCCc3ccccc3)(C(=O)OCC)CC2)cc1 | > 50 µM (inactive)
CCOC(=O)C1(Cc2ccccc2Cl)CCN(Cc2ccc(NC(C)=O)cc2)CC1 | > 50 µM (inactive)
CCOC(=O)C1(CC2CC2)CCN(Cc2ccc(NC(C)=O)cc2)CC1 | > 50 µM (inactive)
CCOC(=O)C1(CCOC)CCN(Cc2ccc(NC(C)=O)cc2)CC1 | > 50 µM (inactive)
CCOC(=O)C1CCN(C(=O)c2ccc(N(C)C)cc2)CC1 | > 50 µM (inactive)
CCOC(=O)C1CCN(Cc2ccc(N(C)C)cc2)CC1 | > 50 µM (inactive)
CCOC(=O)C1(CC2CC2)CCN(C(=O)c2ccc(N3CCCCC3)cc2)CC1 | > 50 µM (inactive)
CCOC(=O)C1(CCOC)CCN(Cc2ccc(N(C)c3ccccc3)cc2)CC1 | > 50 µM (inactive)
CCOC(=O)C1(Cc2ccc(OC)cc2)CCN(C(=O)c2ccc(N(C)C)cc2)CC1 | > 50 µM (inactive)
CCOC(=O)C1CCCCN1Cc1ccc(NC(C)=O)cc1 (stereo not drawn) | > 50 µM (inactive)
CCOC(=O)C1(CCOC)CCCN(Cc2ccc(NC(C)=O)cc2)C1 (stereo not drawn) | > 50 µM (inactive)

Further lines, results first:

EC50 | SMILES
> 50 µM (inactive) | CCOC(=O)C1(CCc2ccccc2)CCN(Cc2ccc(C(=O)OC)cc2)CC1
> 50 µM (inactive) | CC(=O)Nc1ccc(CN2CCCC(CO)(CCc3ccccc3)C2)cc1 (stereo not drawn)
> 50 µM (inactive) | CCOC(=O)C1(CCc2ccccc2)CCCN(Cc2ccc(N3CCNC3=O)cc2)C1 (stereo not drawn)
> 50 µM (inactive) | CCOC(=O)C1(CCc2ccccc2)CCN(Cc2ccc(C#CC(C)(C)O)cc2)CC1
> 50 µM (inactive) | CCOC(=O)C1(CCc2ccccc2)CCN(Cc2ccc(O)cc2)CC1
> 50 µM (inactive) | CCOC(=O)C1(Cc2ccccc2C)CCCN(Cc2ccc(NC(C)=O)cc2)C1 (stereo not drawn)
1.92 µM | CCOC(=O)C1(CCc2ccccc2)CCN(Cc2ccc(OC)cc2)CC1
> 50 µM (inactive) | CCOC(=O)C1(CCc2ccccc2)CCN(Cc2ccncc2)CC1
> 50 µM (inactive) | CCOC(=O)C1(Cc2ccccc2)CCCN(Cc2ccc(NC(C)=O)cc2)C1 (stereo not drawn)
> 50 µM (inactive) | CCOC(=O)C1(CCOc2ccccc2)CCCN(Cc2ccc(NC(C)=O)cc2)C1 (stereo not drawn)
> 50 µM (inactive) | CCOC(=O)C1(Cc2cccc(OC)c2)CCCN(Cc2ccc(NC(C)=O)cc2)C1 (stereo not drawn)
